Assays:
[1] = tested on: human β-defensin-1 (hBD-1); details: human immortalized keratinocyte cells (HaCaT cells); Patent Literature 1; cited from earlier work
[2] = tested on: human β-defensin-3 (hBD-3); details: human immortalized keratinocyte cells (HaCaT cells); Patent Literature 1; cited from earlier work
[3] = tested on: Escherichia coli NBRC 3972; assay: Sterilizing (microorganism growth inhibiting) effect, viable bacterial count; assay type: cell-based; details: one hour after inoculation, room temperature, phosphate-buffered saline, vs control; FIG. 1, result in words
Description: Escherichia coli (Escherichia coli NBRC 3972) was used as a test bacterium. Escherichia coli was inoculated onto a standard agar medium and cultured at 30° C. to 35° C. for 24 hours. After culturing, the bacterial count was adjusted to […] using saline, whereby a test bacterial solution was obtained. Phosphate-buffered saline and ergothioneine were mixed to prepare a test sample 1 (ergothioneine concentration: 100 ppm (0.01 wt %)). Phosphate-buffered saline and isoquercitrin were mixed to prepare a test sample 2 (isoquercitrin concentration: 100 ppm (0.01 wt %)). Phosphate-buffered saline, ergothioneine, and isoquercitrin were mixed to prepare a test sample 3 (ergothioneine concentration: 2.5 ppm (0.00025 wt %), isoquercitrin concentration: 100 ppm (0.01 wt %)). Phosphate-buffered saline, ergothioneine, and isoquercitrin were mixed to prepare a test sample 4 (ergothioneine concentration: 100 ppm (0.01 wt %), isoquercitrin concentration: 100 ppm (0.01 wt %)). Phosphate-buffered saline was used as control. A test sample (5 mL) was inoculated with a 0.05 mL test bacterial solution and left standing at room temperature. […] After culturing, the number of colonies formed was counted, and the viable bacterial count was calculated (n=3). The sterilizing effect (%) was determined from the viable bacterial count (average of n=3) using the following formula. […]

Escherichia coli = details: Non-Patent Literature 1; cited from earlier work
Staphylococcus aureus = details: Non-Patent Literature 1; cited from earlier work

Row | SMILES | expression level of mRNA in hBD-1 [1] | expression level of mRNA in hBD-3 [2] | Sterilizing effect on Escherichia coli [3] | inhibition of growth of Escherichia coli (Escherichia coli) | inhibition of growth of Staphylococcus aureus (Staphylococcus aureus)
1 | C[N+](C)(C)[C@@H](Cc1c[nH]c(=S)[nH]1)C(=O)[O-] [L-ergothioneine] | increased | increased | no sterilizing effect |  | 
2 | O=c1c(O)c(-c2ccc(O)c(O)c2)oc2cc(O)cc(O)c12 [quercetin] |  |  |  | inhibition of growth | inhibition of growth

Source: patent publication US20250082610A1, “COMPOSITION, METHOD FOR MICROORGANISM GROWTH SUPPRESSION IN COMPOSITION FOR ORAL USE, AND AGENT FOR POTENTIATION OF MICROORGANISM-GROWTH-SUPPRESSING EFFECT OF QUERCETIN OR GLYCOSIDE THEREOF” (SUNTORY HOLDINGS LIMITED, priority 2022, published 2025)
